4 compounds from article PMC10341549, “Inhibitory Investigations of Acyl-CoA Derivatives against Human Lipoxygenase Isozymes” (International Journal of Molecular Sciences, 2023) can be followed below.

Where only a bound is given, the exact number is not on record here.

What all share (format): biochemical
One test addresses T1, h12-LOX (Homo sapiens, UniProt P18054).
T1 construct: His tag; made in house
T1 sequence (P18054 1-663): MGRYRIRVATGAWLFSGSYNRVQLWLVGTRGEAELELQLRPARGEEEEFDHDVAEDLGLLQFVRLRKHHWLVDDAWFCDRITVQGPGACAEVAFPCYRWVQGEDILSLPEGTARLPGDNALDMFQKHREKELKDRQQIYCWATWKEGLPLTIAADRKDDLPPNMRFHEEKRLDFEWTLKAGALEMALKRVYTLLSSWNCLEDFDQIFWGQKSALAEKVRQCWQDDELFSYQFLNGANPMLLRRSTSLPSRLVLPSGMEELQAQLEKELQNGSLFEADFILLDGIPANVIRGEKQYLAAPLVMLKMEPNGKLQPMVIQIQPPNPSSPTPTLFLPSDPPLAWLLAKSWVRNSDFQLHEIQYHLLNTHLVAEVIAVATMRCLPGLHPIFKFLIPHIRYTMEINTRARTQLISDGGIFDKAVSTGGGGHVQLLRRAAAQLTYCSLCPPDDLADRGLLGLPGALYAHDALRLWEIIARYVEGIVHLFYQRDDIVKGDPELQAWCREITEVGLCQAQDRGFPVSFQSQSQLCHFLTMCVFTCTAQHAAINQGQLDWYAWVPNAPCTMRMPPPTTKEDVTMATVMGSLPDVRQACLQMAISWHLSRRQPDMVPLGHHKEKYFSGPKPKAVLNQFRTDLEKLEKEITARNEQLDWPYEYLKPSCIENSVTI
Put plainly: IC50 determination against h12-LOX. The conditions noted are these: methyl esters; 10 μM AA, pH 8.00; read-out: IC50 h12-LOX (methyl ester unsaturated fatty acids). On the procedure: (§1) Overexpression and purification of his-tagged wild-type h12-LOX (Uniprot entry P18054), h15-LOX-1 (Uniprot entry P16050), and h15-LOX-2 (Uniprot entry O15296) were performed using nickel-affinity chromatography. The purity of h12-LOX, h15-LOX-1, and h15-LOX-2 was assessed using SDS gel as greater than 85%, and metal content was assessed with a Finnigan inductively coupled plasma mass spectrometer (ICP-MS, Thermo Fischer Scientific, San Jose, USA) via comparison with iron standard solution. Cobalt-EDTA was used as an internal standard. WT h5-LOX (UniProt entry P09917) was expressed in Rosetta 2 cells (Novagen) transformed with the pET14b-Stable-5-LOX plasmid (a gift from Marcia Newcomer of Louisiana State University) and grown in Terrific Broth containing 34 μg/mL chloramphenicol and 100 μg/mL ampicillin at 37 °C for 3.5 h, then placed at 20 °C for an additional 26 h. Cells were pelleted and resuspended in 50 mM Tris (pH 8.0), 500 mM NaCl, 20 mM imidazole with 1 μM pepstatin, 100 μM PMSF, and DNaseI (Sigma, Kanagawa, Japan). The cells were lysed in a French pressure cell and centrifuged at 40,000× g for 20 min at 4 °C. Saturated ammonium sulfate was added to achieve a final solution of 10% and inverted several times. The lysate was centrifuged at 40,000× g for 10 min at 4 °C. The pellet was discarded, and the supernatant was increased to a final concentration of 50% ammonium sulfate. The supernatant was rotated for 10 min at 4 °C then centrifuged at 40,000× g for 10 min at 4 °C. The pellet was split into 150 mg aliquots. The WT h5-LOX used for the kinetics in this work was not purified due to a dramatic loss in activity and was therefore prepared as an ammonium-sulfate precipitate.
IC50 values for each acyl-CoA were measured against h5-LOX, h12-LOX, h15-LOX-1, and h15-LOX-2. […] The fastest rates over 15 s intervals were recorded. […]

Test [1] deals with T2, h15-LOX-1 (Homo sapiens, UniProt P16050).
T2 construct: His tag; made in house
T2 sequence (P16050 1-662): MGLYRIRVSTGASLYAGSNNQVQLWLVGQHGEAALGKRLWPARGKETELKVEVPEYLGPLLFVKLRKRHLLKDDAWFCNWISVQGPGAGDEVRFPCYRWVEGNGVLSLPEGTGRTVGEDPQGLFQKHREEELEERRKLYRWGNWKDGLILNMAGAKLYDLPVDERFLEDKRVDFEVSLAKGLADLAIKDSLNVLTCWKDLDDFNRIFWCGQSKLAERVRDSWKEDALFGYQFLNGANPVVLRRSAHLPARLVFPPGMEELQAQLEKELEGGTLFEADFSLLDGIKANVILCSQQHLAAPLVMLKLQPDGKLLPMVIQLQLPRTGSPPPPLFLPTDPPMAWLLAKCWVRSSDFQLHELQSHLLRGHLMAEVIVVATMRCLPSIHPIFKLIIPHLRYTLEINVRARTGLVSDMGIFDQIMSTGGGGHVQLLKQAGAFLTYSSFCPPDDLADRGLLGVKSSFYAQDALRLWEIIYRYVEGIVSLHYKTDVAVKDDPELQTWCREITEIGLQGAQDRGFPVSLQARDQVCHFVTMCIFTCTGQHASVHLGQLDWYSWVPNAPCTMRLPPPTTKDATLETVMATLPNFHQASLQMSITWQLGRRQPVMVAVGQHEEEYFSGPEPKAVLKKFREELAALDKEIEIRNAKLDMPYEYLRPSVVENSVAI
Put plainly: IC50 determination against h15-LOX-1. The conditions noted are these: 10 μM AA, 25 mM HEPES pH 7.5, 0.01% Triton X-100, 22 °C. The method, then: as §1
(§2) IC50 values for each acyl-CoA were measured against h5-LOX, h12-LOX, h15-LOX-1, and h15-LOX-2. The reactions were carried out in 25 mM HEPES buffer (pH 8.00), 0.01% Triton X-100, and 10 μM AA for h12-LOX; 25 mM HEPES buffer (pH 7.5), 0.01% Triton X-100, and 10 μM AA for h15-LOX-1 and h15-LOX-2; and 50 mM HEPES buffer (pH 7.5), 100 µM EDTA, 50 mM NaCl, 200 µM ATP, and 10 μM AA for h5-LOX. IC50 reactions were implemented with h15-LOX-1 (0.125 μM), h12-LOX (0.300 μM), h15-LOX-2 (0.5 μM), and h5-LOX (∼600 nM ammonium sulfate salt) at 22 °C in a 1 cm^2 quartz cuvette containing 2 mL of the according buffer and 10 μM AA for no longer than 2 min to avoid any cleavage of the acyl-coenzyme A. Inhibitor concentrations ranging from 50 μM to 0.01 μM were used. All reactions were conducted using a Cary-UV Vis spectrophotometer (Agilent, Santa Clara, CA, USA). The fastest rates over 15 s intervals were recorded. IC50 values were obtained by determining the percent of inhibition of the enzymatic rate at ten inhibitor concentrations and plotting the rate against the inhibitor concentration, followed by a hyperbolic saturation curve fit. The saturation curve fits were performed in duplicate or triplicate, depending on the quality of the data. […] Through HPLC monitoring, we were able to determine a lack of degradation of the fatty acyl-CoAs over the first hour.

In another test the target is T3, h15-LOX-2 (Homo sapiens, UniProt O15296).
T3 construct: His tag; made in house
T3 sequence (O15296 1-676): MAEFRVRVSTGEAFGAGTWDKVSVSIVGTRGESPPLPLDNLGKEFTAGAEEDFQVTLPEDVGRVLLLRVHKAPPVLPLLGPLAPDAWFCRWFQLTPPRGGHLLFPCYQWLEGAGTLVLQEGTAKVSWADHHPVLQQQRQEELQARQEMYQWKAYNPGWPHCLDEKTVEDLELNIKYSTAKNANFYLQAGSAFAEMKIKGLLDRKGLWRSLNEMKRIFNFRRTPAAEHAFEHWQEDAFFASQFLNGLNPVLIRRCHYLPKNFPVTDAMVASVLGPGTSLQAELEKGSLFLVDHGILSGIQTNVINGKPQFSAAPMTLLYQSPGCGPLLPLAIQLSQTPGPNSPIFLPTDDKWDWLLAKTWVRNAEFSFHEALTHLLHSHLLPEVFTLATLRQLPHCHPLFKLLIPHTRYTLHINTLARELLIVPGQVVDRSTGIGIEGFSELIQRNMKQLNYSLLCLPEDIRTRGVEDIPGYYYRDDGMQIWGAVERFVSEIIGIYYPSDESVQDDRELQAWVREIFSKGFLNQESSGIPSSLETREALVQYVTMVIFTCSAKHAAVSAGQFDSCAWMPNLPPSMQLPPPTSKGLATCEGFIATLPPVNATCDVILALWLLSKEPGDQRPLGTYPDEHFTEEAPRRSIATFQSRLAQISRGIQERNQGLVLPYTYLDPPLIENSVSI
Put plainly: IC50 determination against h15-LOX-2. The conditions noted are these: 10 μM AA, 25 mM HEPES pH 7.5, 0.01% Triton X-100, 22 °C. On the procedure:
as §1, §2

Test [2] concerns the target T2, h15-LOX-1. Put plainly: Substrate activity and kinetic parameters with h15-LOX-1. The conditions noted are these: acyl-CoAs tested at 70 µM; change in absorbance at 234 nm. The method, then: Considering that some of these acyl-CoAs could potentially be substrates for LOX isozymes, each acyl-CoA was tested at 70 µM against each LOX isozyme to establish the possibility of catalysis.
The same buffer as used to determine IC50 values for h5-LOX was used for product determination. Turnover was monitored by absorbance at 234 nm.

In the case of `CC/C=C\C/C=C\C/C=C\CCCCCCCCCCCC(=O)OC` [methyl 13(Z),16(Z),19(Z)-docosatrienoate, methyl-13(Z),16(Z),19(Z)-docosatrienoate (22:3)], the IC50 on h12-LOX, at h15-LOX-1 [1] and at h15-LOX-2 was greater than 200 µM throughout.
For the compound `CC/C=C\C/C=C\C/C=C\CC/C=C\CCCCCCCC(=O)OC` [methyl docosatetraenoate, methyl-9(Z),13(Z),16(Z),19(Z)-docosatetraenoate (22:4)], the IC50 at h12-LOX, against h15-LOX-1 [1] and against h15-LOX-2 was greater than 200 µM throughout.
With `CCCCC/C=C\C/C=C\C/C=C\C/C=C\CCCC(=O)OC` [methyl ester arachidonic acid], at h15-LOX-1 [2], the “Substrate activity with h15-LOX-1” value is listed as “substrates”.
With `CCCCC/C=C\C/C=C\CCCCCCCCCCCC(=O)OC` [methyl-13Z,16Z-docosadienoic, methyl-13Z,16Z-docosadienoic (22:2)], the IC50 at h12-LOX, at h15-LOX-1 [1] and at h15-LOX-2 was greater than 200 µM each time.
